# Assay results as given in patent US20230137491A1, “PEPTIDES AND USES THEREOF” (SINTICA BIOTECH SOCIETÀ A RESPONSABILITÀ LIMITATA …, priority 2020, published 2023).
# Non-standard residues stand in square brackets, D forms with d. methoxy‑PEG 20 kDa = linear 20 kDa methoxy-PEG conjugated through D-Cys sulfur
# Key:
# [1] = tested on: SKmel 28 cell line in zebrafish; test: Zebrafish xenotransplant with SKmel28 cell line; assay type: in vivo; conditions: SKmel28, embryos with metastasis counted 5 days post injection
# Method: FIG. 12. […] SKMel28 melanoma cell line was treated with XYZ, DTIC, the peptide in combination with DTIC, or left untreated. They were stained with Vibrant Cell Labelling Solution (red) and injected into the yolk of transparent zebrafish larvae and monitored. The number of embryos with metastasis was counted at 5 days post injection.
# Zebrafish handling was performed at the Zebrafish Centre of the University of Padova, Italy, under ethical committee (OPBA) authorization 407/2015-PR. Zebrafish embryos were obtained from natural spawning of albino adults, raised following standard protocols (Westerfield, M et al., 2000) and staged according to Kimmel et al. (1995). […] Zebrafishes were monitored daily and documented from 1 day post injection (dpi) up to 1 week (experimental endpoint). […]
# For xenotransplantation, albino embryos were mechanically dechorionated at 2 days post-fertilisation, anesthetized with tricaine 0.16 mg/ml and placed along plastic lanes immersed in 2% methylcellulose/PBS. […] Stained cells were loaded in a glass capillary needle and microinjected into the yolk (about 50 cells/embryo), Xenotransplanted embryos were monitored daily and documented from one day post injection up to one week.
# [2] = tested on: WM115 CD271 silenced (siRNA) melanoma cell line; test: MTT assay in CD271-silenced (siRNA) cells; assay type: cell-based, human; conditions: WM115 transfected with CD271 siRNA
# Description: FIG. 6. The peptide reduces melanoma cell viability through CD271. WM115 melanoma cell line was transiently transfected with CD271 siRNA, as shwon by western blotting. MTT assay was used to measure cell viability after treatment with the peptide (XYZ) or the diluent in siRNA and scramble cells. SKme128 melanoma cell line was transiently transfected with CD271 mRNA, as shown by western blotting. MTT assay was used to measure cell viability after treatment with the peptide (XYZ) or the diluent in siRNA and scramble cells. Student's t-test was used for comparison of the means.
# 5×10^3 cells/well were seeded in 96-well culture plates. At different time points, cells were incubated with 0.5% MTT (3-(4,5-dimethylthiazol-2-yl)-2,5-diphenyltetrazolium bromide) for 4 h at 37° C. and then dissolved with 100 μl Isopropanol with 0.04N HCl. The plate was read at 560 nm with a reference filter of 650 nm. Results are expressed as viability percentage, as compared to control.
# Melanoma cells were plated in 2D for 24 h in antibiotic free medium. WM115 cell line was then transfected with scrambled or CD271 siRNA (50 nM and 100 nM, respectively) (Dharmacon Inc, Lafayette, Colo., USA) in antibiotic/FBS free medium supplemented with 0.1% BSA and 48 h later cells were seeded for MTT assay or lysed for western blotting.
# [3] = tested on: WM266-4 melanoma cell line; test: Cell death analysis by flow cytometry (propidium iodide, sub-G1); assay type: cell-based, human; conditions: WM266-4, 24 h and 48 h, versus diluent
# Method: (§1) FIG. 5. […] WM266-4 melanoma cell line was cultured and the rate of apoptosis measured after treatment with the peptide (XYZ) as compared to diluent at different time points by flow cytometry (A) counting % of cells in sub-G1 with propidium iodide staining or (B) counting % of Annexin positive cells staining. Student's t-test was used for comparison of the means
# WM266-4 cell line was treated with the peptide (XYZ) or diluent at different time points. After 24 and 48 h, cells were trypsinised and resuspended in hypotonic fluorochrome solution: 50 μg/ml propidium iodide containing 0.1% sodium citrate and 0.5% Triton X-100 (Sigma Aldrich, Milano, Italy). After 15 min, cells were analyzed using an Epics XL flow cytometer (Coulter Electronics Inc., Hialeah, Fla., USA). Apoptosis was detected by evaluating the reduced fluorescence of the DNA-binding dye PI in the apoptotic nuclei.
# (§2) In particular, XYZ triggers melanoma apoptosis, a most well-known type of programmed cell death in culture. […] In details, melanoma cell lines, gently were trypsinised and washed once with serum-containing media before incubation with annexin V-FITC or with propidium iodide. 24 h and 48 h later, FITC signal detector or sub G0/G1 peak for annexin or PI staining respectively, were observed by flow cytometry.
# [4] = tested on: primary and metastatic melanoma cell lines; test: Trypan blue viable cell counting in relation to CD271 levels by flow cytometry; assay type: cell-based, human; conditions: five primary and metastatic melanoma cell lines
# Method: FIG. 4. The peptide-induced cell death correlates with CD271 expression levels in melanoma cell lines. Five primary and metastatic melanoma cell lines were cultured and viability measured by Trypan blue staining solution. Flow cytometry was used to evaluate the expression level of CD271 receptor. Because CD271 mediates apoptosis in many cell systems, we analysed the effect of XYZ in melanoma cell lines in relation to the levels of the receptor. After treatment, melanoma cell lines were harvested and incubated with Trypan Blue staining solution or incubated with CD271 antibody for flow cytometer analysis.
# [5] = tested on: WM266-4 melanoma cell line; test: Annexin V staining by flow cytometry; assay type: cell-based, human; conditions: WM266-4, 24 h and 48 h, versus diluent
# Method: as §1
# WM266-4 cell line was treated with the peptide (XYZ) or diluent at different time points. After 24 and 48 h, cells were trypsinised, collected by centrifugation and resuspended in 500 μL of binding buffer containing annexin V-FITC and propidium iodide (PI). After incubation at room temperature for 5 min in the dark, annexin V-FITC binding was analyzed by flow cytometry using FITC signal detector and PI staining by the phycoerythrin emission signal detector.
# as §2
# CD1 mice = test: Acute toxicity testing (up and down procedure); assay type: in vivo; conditions: six CD1 mice, intravenous, 17.5 mg/kg to 1750 mg/kg, up to six days
# Method: FIG. 10. No toxic effects in 6 mice treated with XYZ. Acute toxicity testing was performed in CD1 mice with different doses of XYZ up to six days after treatment. After one day of fasting, six mice were injected intravenously (28 G needle) through the tail vein with a total dose of 17.5, 175, 550 or 1750 mg/kg/mouse of XYZ in a physiological solution. 50 gr of food were available two hours later. The health status (coat and appearance) of mice was observed from the first day after treatment. (a) Mice were weighed prior to XYZ injection and then every day until the sixth day. The amount of ingested food (b) and drinking water (c) were measured.
# Intravenous injections were performed in six CD1 mice (Charles River, Calco (MI) Italy) tails for administration from 17.5 mg/kg to 1750 mg/kg XYZ (FIG. 10).
substance,measurement,setting,value
Ac-DMet-DLeu-Gly-DIle-DIle-DAla-Gly-DLys-DAsn-DSer-Gly-DCys-NH2 with a linear 20 kDa methoxy-PEG polymer conjugated to the D-Cys residue through the sulfur atom of the latter (Ac-[dM][dL]G[dI][dI][dA]G[dK][dN][dS]G[dC](methoxy‑PEG 20 kDa)-NH2) [XYZ],full metastasis in xenotransplanted zebrafish,[1],reduces full metastasis
same,cell viability (MTT assay) in CD271-silenced cells,[2],fails to reduce cell viability
same,"rate of apoptosis (propidium iodide, subG1 analysis)",[3],significantly higher rate of apoptosis than diluent alone
same,"cell death versus CD271 expression level (Trypan blue viable cell counting, flow cytometry)",[4],more efficacious in cell lines expressing higher levels of CD271
same,rate of apoptosis (Annexin staining),[5],significantly higher rate of apoptosis than diluent alone
same,"acute toxic effect (appearance, weight, water and food intake)",CD1 mice,did not show any acute toxic effect
